Results from US5324502A, “Radiopharmaceuticals for imaging the heart” (priority 1992, dated 1994).
Where two headings read alike, the source gives them in different places.

Experiments:
[1] = PET imaging of the heart with the 68Ga complex; conditions: dog, 20 mCi bolus i.v.
Source text: The dog was placed in a plexiglass holder and positioned within the PET VI camera, a positron emission tomograph that permits simultaneous acquisition of seven transverse tomographic slices with a slice-to-slice separation of 1.44 cm, a slice thickness of 1.39 cm, and a reconstructed resolution of 12.0 mm (full width at half maximum). A transmission scan, necessary for attenuation correction, was obtained using an external ring of ^68 Ge/^68 Ga. A ^15 O-myocardial perfusion image was then obtained for reference employing ^15 O-water and ^15 O-carbon monoxide in a standard PET protocol. After decay of the ^15 O activity to background levels, the ^68 Ga-bis(4,6-dimethoxysalicylaldimino)-N,N'-bis(aminopropyl) ethylene-diamine radiopharmaceutical (20 mCi) was administered to the dog as a bolus intravenous injection. Dynamic PET data was collected for ten 1 minute frames commencing at the time of ^68 Ga injection, followed by eight consecutive 10 minute static images. PET images of the chest were reconstructed from each of the ten one minute frames and each of the eight 10 minute frames. […] Regions-of-interest were defined in the ^68 Ga images allowing quantitative determination of regional myocardial tissue concentrations of tracer.

[2] = Octanol/water partition coefficient of radiolabeled gallium complexes; type: physicochemical; conditions: 1-octanol / isotonic Tris buffer pH 7.0
Method: Octanol/water partition coefficients were measured by vortex mixing 1 mL of 1-octanol and 1 mL of isotonic Tris buffer (pH 7.0) with a 1-5 μL sample of the radiolabeled gallium complex. Following centrifugation at >1200 g for 5 minutes, the octanol and aqueous phases were sampled and counted in an automatic well counter.

[3] = rat, i.v.; for Heart/Blood / Heart/Liver / Heart/Lungs: ratio
Method in brief: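 Male Sprague-Dawley rats under ether anesthesia received 1 to 3 μCi of no-carrier-added Ga-67 complex as a femoral-vein bolus. Animals were killed at set times post-injection; organs weighed and counted. Values given as % injected dose per gram and per organ.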

COc1cc([O-])c(C=NCCCNCCNCCCN=Cc2c([O-])cc(OC)cc2OC)c(OC)c1.[68Ga+3] [^68 Ga-bis(4,6-dimethoxysalicylaldimino)-N,N'-bis(aminopropyl)ethylenediamine]
clearance of myocardial ^68 Ga radioactivity ([1]; 90 minute imaging period): No clearance of myocardial ^68 Ga radioactivity was observed | delineation of the heart in ^68 Ga PET images ([1]; beyond 20 minutes post-injection): the heart was clearly delineated in the ^68 Ga-images with good heart-to-blood and heart-to-lung contrast

^67 GaL^+ L = [(4-deaSal)2 DM-BAPEN, ^67 GaL^+ L = [bis(diethylaminosalicylaldimino)-N,N'-bis(2,2'-dimethyl-3-aminopropyl)ethylenediamine]]
log P [2]: 2.84 | % Injected Dose per Gram Tissue, Blood ([3]; 1 min): 1.91 ± 0.22 % Injected Dose per Gram Tissu | % Injected Dose per Gram Tissue, Brain ([3]; 1 min): 0.05 ± 0.01 % Injected Dose per Gram Tissu | % Injected Dose per Gram Tissue, Heart ([3]; 1 min): 0.85 ± 0.09 % Injected Dose per Gram Tissu | % Injected Dose per Gram Tissue, Kidney (one) ([3]; 1 min): 4.85 ± 0.75 % Injected Dose per Gram Tissu | % Injected Dose per Gram Tissue, Liver ([3]; 1 min): 4.91 ± 0.36 % Injected Dose per Gram Tissu | % Injected Dose per Gram Tissue, Lungs ([3]; 1 min): 4.23 ± 0.68 % Injected Dose per Gram Tissu | % Injected Dose per Gram Tissue, Spleen ([3]; 1 min): 1.61 ± 0.44 % Injected Dose per Gram Tissu | % Injected Dose per Organ, Blood ([3]; 1 min): 30.59 ± 3.45 % Injected Dose per Organ | % Injected Dose per Organ, Brain ([3]; 1 min): 0.08 ± 0.02 % Injected Dose per Organ | % Injected Dose per Organ, Heart ([3]; 1 min): 0.66 ± 0.06 % Injected Dose per Organ | % Injected Dose per Organ, Kidney (one) ([3]; 1 min): 4.25 ± 0.52 % Injected Dose per Organ | % Injected Dose per Organ, Liver ([3]; 1 min): 47.04 ± 6.53 % Injected Dose per Organ | % Injected Dose per Organ, Lungs ([3]; 1 min): 5.30 ± 0.23 % Injected Dose per Organ | % Injected Dose per Organ, Spleen ([3]; 1 min): 1.12 ± 0.34 % Injected Dose per Organ | % injected dose in heart, 1 min ([3]; 1 min, preliminary studies): 0.66 ± 0.06 % injected dose | % Injected Dose per Gram Tissue, Blood ([3]; 15 min): 0.30 ± 0.04 % Injected Dose per Gram Tissu | % Injected Dose per Gram Tissue, Brain ([3]; 15 min): 0.02 ± 0.01 % Injected Dose per Gram Tissu | % Injected Dose per Gram Tissue, Heart ([3]; 15 min): 0.57 ± 0.05 % Injected Dose per Gram Tissu | % Injected Dose per Gram Tissue, Kidney (one) ([3]; 15 min): 5.55 ± 0.50 % Injected Dose per Gram Tissu | % Injected Dose per Gram Tissue, Liver ([3]; 15 min): 4.78 ± 1.20 % Injected Dose per Gram Tissu | % Injected Dose per Gram Tissue, Lungs ([3]; 15 min): 2.06 ± 0.21 % Injected Dose per Gram Tissu | % Injected Dose per Gram Tissue, Spleen ([3]; 15 min): 3.15 ± 0.45 % Injected Dose per Gram Tissu | % Injected Dose per Organ, Blood ([3]; 15 min): 5.08 ± 0.71 % Injected Dose per Organ | % Injected Dose per Organ, Brain ([3]; 15 min): 0.00 ± 0.00 % Injected Dose per Organ | % Injected Dose per Organ, Heart ([3]; 15 min): 0.46 ± 0.04 % Injected Dose per Organ | % Injected Dose per Organ, Kidney (one) ([3]; 15 min): 4.79 ± 0.38 % Injected Dose per Organ | % Injected Dose per Organ, Liver ([3]; 15 min): 50.24 ± 11.08 % Injected Dose per Organ | % Injected Dose per Organ, Lungs ([3]; 15 min): 2.71 ± 0.22 % Injected Dose per Organ | % Injected Dose per Organ, Spleen ([3]; 15 min): 2.29 ± 0.42 % Injected Dose per Organ | % Injected Dose per Gram Tissue, Blood ([3]; 120 min): 0.06 ± 0.01 % Injected Dose per Gram Tissu | % Injected Dose per Gram Tissue, Brain ([3]; 120 min): 0.00 ± 0.00 % Injected Dose per Gram Tissu | % Injected Dose per Gram Tissue, Heart ([3]; 120 min): 0.47 ± 0.02 % Injected Dose per Gram Tissu | % Injected Dose per Gram Tissue, Kidney (one) ([3]; 120 min): 5.28 ± 0.32 % Injected Dose per Gram Tissu | % Injected Dose per Gram Tissue, Liver ([3]; 120 min): 0.96 ± 0.14 % Injected Dose per Gram Tissu | % Injected Dose per Gram Tissue, Lungs ([3]; 120 min): 1.02 ± 0.13 % Injected Dose per Gram Tissu | % Injected Dose per Gram Tissue, Spleen ([3]; 120 min): 2.89 ± 0.21 % Injected Dose per Gram Tissu | % Injected Dose per Organ, Blood ([3]; 120 min): 1.06 ± 0.20 % Injected Dose per Organ | % Injected Dose per Organ, Brain ([3]; 120 min): 0.02 ± 0.01 % Injected Dose per Organ | % Injected Dose per Organ, Heart ([3]; 120 min): 0.40 ± 0.04 % Injected Dose per Organ | % Injected Dose per Organ, Kidney (one) ([3]; 120 min): 5.17 ± 0.19 % Injected Dose per Organ | % Injected Dose per Organ, Liver ([3]; 120 min): 11.06 ± 2.46 % Injected Dose per Organ | % Injected Dose per Organ, Lungs ([3]; 120 min): 1.31 ± 0.07 % Injected Dose per Organ | % Injected Dose per Organ, Spleen ([3]; 120 min): 2.09 ± 0.18 % Injected Dose per Organ | % injected dose in heart, 2 h ([3]; 2 h, preliminary studies): 0.40 ± 0.04 % injected dose | Heart/Blood ([3]; 1 min): 0.45 ± 0.04 | Heart/Liver ([3]; 1 min): 0.17 ± 0.03 | Heart/Lungs ([3]; 1 min): 0.20 ± 0.02 | Heart/Blood ([3]; 15 min): 1.94 ± 0.33 | Heart/Liver ([3]; 15 min): 0.13 ± 0.04 | Heart/Lungs ([3]; 15 min): 0.28 ± 0.04 | Heart/Blood ([3]; 120 min): 8.06 ± 1.62 | Heart/Liver ([3]; 120 min): 0.50 ± 0.07 | Heart/Lungs ([3]; 120 min): 0.46 ± 0.07
